{"source": "patent US9422293B2", "about": "(priority 2006, dated 2016)", "note": "Where a name gives a salt, the structure may show the parent alone.", "data": [{"target": "rat TRPV1 (Rattus norvegicus (Rat), UniProt O35433)", "sequence (O35433 whole entry)": "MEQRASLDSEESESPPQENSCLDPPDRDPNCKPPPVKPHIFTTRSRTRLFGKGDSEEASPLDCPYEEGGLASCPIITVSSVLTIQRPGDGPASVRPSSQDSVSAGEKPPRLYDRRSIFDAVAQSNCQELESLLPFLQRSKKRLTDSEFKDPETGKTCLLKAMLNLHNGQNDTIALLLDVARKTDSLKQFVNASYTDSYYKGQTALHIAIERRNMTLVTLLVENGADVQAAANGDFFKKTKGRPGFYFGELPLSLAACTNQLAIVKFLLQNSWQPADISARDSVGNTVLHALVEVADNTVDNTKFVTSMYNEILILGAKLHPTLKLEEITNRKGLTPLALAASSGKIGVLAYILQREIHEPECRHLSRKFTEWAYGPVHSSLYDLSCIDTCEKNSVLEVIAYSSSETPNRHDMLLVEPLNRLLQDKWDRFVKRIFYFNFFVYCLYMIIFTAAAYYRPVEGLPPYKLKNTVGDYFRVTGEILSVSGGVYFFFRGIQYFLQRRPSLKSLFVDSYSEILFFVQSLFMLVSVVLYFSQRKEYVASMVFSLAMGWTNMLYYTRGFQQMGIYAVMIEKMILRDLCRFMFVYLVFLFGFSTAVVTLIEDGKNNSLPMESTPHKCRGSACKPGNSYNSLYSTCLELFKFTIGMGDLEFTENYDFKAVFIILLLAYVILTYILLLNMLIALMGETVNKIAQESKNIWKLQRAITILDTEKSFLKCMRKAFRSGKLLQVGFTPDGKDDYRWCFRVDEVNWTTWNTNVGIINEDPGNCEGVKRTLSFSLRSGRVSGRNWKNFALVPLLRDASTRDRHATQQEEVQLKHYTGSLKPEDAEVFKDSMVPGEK", "details": "read-out: Rat IC50", "units": {"IC50": "µM"}, "values": [{"smiles": "Cc1cc(C(F)(F)F)ccc1Nc1nc(SC2CCOC2C)nc2c1CCN(c1ncccc1C(F)(F)F)CC2", "note": "(stereo not drawn) [Example 368, 2,5-Anhydro-1,4-dideoxy-3-S-(4-{[2-methyl-4-(trifluoromethyl)phenyl]amino}-7-[3-(trifluoromethyl)pyridin-2-yl]-6,7,8,9-tetrahydro-5H-pyrimido[4,5-d]azepin-2-yl)-3-thiopentitol]", "IC50": 0.02}, {"smiles": "Cc1cncnc1N1CCc2ncnc(Nc3ccc(C(C)(C)C)cc3)c2CC1", "note": "[Example 38, (4-tert-Butyl-phenyl)-[7-(5-methyl-pyrimidin-4-yl)-6,7,8,9-tetrahydro-5H-pyrimido[4,5-d]azepin-4-yl]-amine]", "IC50": 1.4}, {"smiles": "FC(F)(F)c1ccc(Nc2nc(N3CCCCC3)nc3c2CCN(c2ncccc2C(F)(F)F)CC3)cn1", "note": "[Example 234, 2-Piperidin-1-yl-7-[3-(trifluoromethyl)pyridin-2-yl]-N-[6-(trifluoromethyl)pyridin-3-yl]-6,7,8,9-tetrahydro-5H-pyrimido[4,5-d]azepin-4-amine trifluoroacetic acid salt]", "IC50": 0.08}, {"smiles": "FC(F)(F)c1ccc(Nc2nc(OC3CCOCC3)nc3c2CCN(c2ncccc2C(F)(F)F)CC3)cc1", "note": "[Example 339, 2-(Tetrahydro-2H-pyran-4-yloxy)-N-[4-(trifluoromethyl)phenyl]-7-[3-(trifluoromethyl)pyridin-2-yl]-6,7,8,9-tetrahydro-5H-pyrimido[4,5-d]azepin-4-amine]", "IC50": 0.19}, {"smiles": "CC(C)(C)c1ccc(Nc2nc(N3CCCCC3)nc3c2CCN(c2ncccc2C(F)(F)F)CC3)cc1[N+](=O)[O-]", "note": "[Example 159, N-[4-(1,1-Dimethylethyl)-3-nitrophenyl]-2-piperidin-1-yl-7-[3-(trifluoromethyl)pyridin-2-yl]-6,7,8,9-tetrahydro-5H-pyrimido[4,5-d]azepin-4-amine]", "IC50": 0.03}, {"smiles": "CC(C)c1nc2c(c(Nc3ccc(C(C)(C)C)cc3)n1)CCN(c1ncccc1N)CC2", "note": "[Example 284, 7-(3-Aminopyridin-2-yl)-N-[4-(1,1-dimethylethyl)phenyl]-2-(1-methylethyl)-6,7,8,9-tetrahydro-5H-pyrimido[4,5-d]azepin-4-amine]", "IC50": 0.55}, {"smiles": "CC(C)c1nc2c(c(Nc3cnc4ccccc4c3)n1)CCN(c1ncccc1C(F)(F)F)CC2", "note": "[Example 21, [2-Isopropyl-7-(3-trifluoromethyl-pyridin-2-yl)-6,7,8,9-tetrahydro-5H-pyrimido[4,5-d]azepin-4-yl]-quinolin-3-yl-amine]", "IC50": 1.1}, {"smiles": "CCS(=O)(=O)c1cccnc1N1CCc2nc(SC)nc(Nc3ccc(C(F)(F)F)cc3)c2CC1", "note": "[Example 305, [7-(3-Ethanesulfonyl-pyridin-2-yl)-2-methylsulfanyl-6,7,8,9-tetrahydro-5H-pyrimido[4,5-d]azepin-4-yl]-(4-trifluoromethyl-phenyl)-amine]", "IC50": 1.12}, {"smiles": "CN(Cc1ccco1)c1nc2c(c(Nc3ccc(C(F)(F)F)cc3)n1)CCN(c1ncccc1C(F)(F)F)CC2", "note": "[Example 216, N^2-(Furan-2-ylmethyl)-N^2-methyl-N^4-[4-(trifluoromethyl)phenyl]-7-[3-(trifluoromethyl)pyridin-2-yl]-6,7,8,9-tetrahydro-5H-pyrimido[4,5-d]azepine-2,4-diamine trifluoroacetic acid salt]", "IC50": 0.05}, {"smiles": "OCC1CN(c2nc3c(c(Nc4ccc(C(F)(F)F)cc4)n2)CCN(c2ncccc2C(F)(F)F)CC3)CCO1", "note": "(stereo not shown) [Example 271, [4-(4-{[4-(Trifluoromethyl)phenyl]amino}-7-[3-(trifluoromethyl)pyridin-2-yl]-6,7,8,9-tetrahydro-5H-pyrimido[4,5-d]azepin-2-yl)morpholin-2-yl]methanol]", "IC50": 0.84}, {"smiles": "CC(C)(C)c1ccc(Nc2ncnc3c2CCN(c2ncccc2C(F)(F)F)CC3)cc1", "note": "[Example 1, (4-tert-Butyl-phenyl)-[7-(3-trifluoromethyl-pyridin-2-yl)-6,7,8,9-tetrahydro-5H-pyrimido[4,5-d]azepin-4-yl]-amine]", "IC50": 0.09}, {"smiles": "Cc1nc2c(c(Nc3ccc(C(F)(F)F)cc3)n1)CCN(c1ncccc1C(F)(F)F)CC2", "note": "[Example 16, [2-Methyl-7-(3-trifluoromethyl-pyridin-2-yl)-6,7,8,9-tetrahydro-5H-pyrimido-[4,5-d]azepin-4-yl]-(4-trifluoromethyl-phenyl)-amine]", "IC50": 0.1}, {"smiles": "CN(C)c1nc2c(c(Nc3ccc(C(C)(C)C)cc3)n1)CCN(c1ncccc1C(F)(F)F)CC2", "note": "[Example 48, N^4-(4-tert-Butyl-phenyl)-N^2,N^2-dimethyl-7-(3-trifluoromethyl-pyridin-2-yl)-6,7,8,9-tetrahydro-5H-pyrimido[4,5-d]azepine-2,4-diamine]", "IC50": 0.074}, {"smiles": "CCS(=O)(=O)c1cccnc1N1CCc2nc(N3CCCCC3)nc(Nc3ccc(C(F)(F)F)cc3)c2CC1", "note": "[Example 297, 7-[3-(Ethylsulfonyl)pyridin-2-yl]-2-piperidin-1-yl-N-[4-(trifluoromethyl)phenyl]-6,7,8,9-tetrahydro-5H-pyrimido[4,5-d]azepin-4-amine]", "IC50": 1.08}, {"smiles": "FC(F)(F)c1ccc(Nc2nc(OC3CCOC3)nc3c2CCN(c2ncccc2C(F)(F)F)CC3)cc1", "note": "(stereo not shown) [Example 340, 2-(Tetrahydrofuran-3-yloxy)-N-[4-(trifluoromethyl)phenyl]-7-[3-(trifluoromethyl)pyridin-2-yl]-6,7,8,9-tetrahydro-5H-pyrimido[4,5-d]azepin-4-amine]", "IC50": 0.26}, {"smiles": "CC(C)c1nc2c(c(Nc3ccc(SC(F)(F)F)cc3)n1)CCN(c1ncccc1C(F)(F)F)CC2", "note": "[Example 104, [2-Isopropyl-7-(3-trifluoromethyl-pyridin-2-yl)-6,7,8,9-tetrahydro-5H-pyrimido[4,5-d]azepin-4-yl]-(4-trifluoromethylsulfanyl-phenyl)-amine]", "IC50": 0.32}, {"smiles": "O=C1CN(c2nc3c(c(Nc4ccc(C(F)(F)F)cc4)n2)CCN(c2ncccc2C(F)(F)F)CC3)CCN1", "note": "[Example 90B, 4-[4-(4-Trifluoromethyl-phenylamino)-7-(3-trifluoromethyl-pyridin-2-yl)-6,7,8,9-tetrahydro-5H-pyrimido[4,5-d]azepin-2-yl]-piperazin-2-one trifluoroacetic acid salt]", "IC50": "> 6.7"}, {"smiles": "Cc1ccccc1Nc1nc2c(c(Nc3ccc(C(F)(F)F)cc3)n1)CCN(c1ncccc1C(F)(F)F)CC2", "note": "[Example 278, N^2-(2-Methylphenyl)-N^4-[4-(trifluoromethyl)phenyl]-7-[3-(trifluoromethyl)pyridin-2-yl]-6,7,8,9-tetrahydro-5H-pyrimido[4,5-d]azepine-2,4-diamine trifluoroacetic acid salt]", "IC50": 0.67}, {"smiles": "CC(C)(O)c1ccc(Nc2nc(N3CCCCC3)nc3c2CCN(c2ncccc2C(F)(F)F)CC3)cc1", "note": "[Example 177, 2-[4-({2-Piperidin-1-yl-7-[3-(trifluoromethyl)pyridin-2-yl]-6,7,8,9-tetrahydro-5H-pyrimido[4,5-d]azepin-4-yl}amino)phenyl]propan-2-ol]", "IC50": 0.09}, {"smiles": "COc1ccc(Nc2nc(N(C)C)nc3c2CCN(c2ncccc2C(F)(F)F)CC3)cc1", "note": "[Example 81B, N^4-(4-Methoxy-phenyl)-N^2,N^2-dimethyl-7-(3-trifluoromethyl-pyridin-2-yl)-6,7,8,9-tetrahydro-5H-pyrimido[4,5-d]azepine-2,4-diamine trifluoroacetic acid salt]", "IC50": 0.97}, {"smiles": "CC(C)N1CCN(c2nc3c(c(Nc4ccc(C(F)(F)F)cc4)n2)CCN(c2ncccc2C(F)(F)F)CC3)CC1", "note": "[Example 60B, [2-(4-Isopropyl-piperazin-1-yl)-7-(3-trifluoromethyl-pyridin-2-yl)-6,7,8,9-tetrahydro-5H-pyrimido[4,5-d]azepin-4-yl]-(4-trifluoromethyl-phenyl)-amine trifluoroacetic acid salt]", "IC50": 0.14}, {"smiles": "CSc1nc2c(c(Nc3ccc4c(c3)N(C)CCC4)n1)CCN(c1ncccc1C(F)(F)F)CC2", "note": "[Example 205, 2-(Methylsulfanyl)-N-(1-methyl-1,2,3,4-tetrahydroquinolin-7-yl)-7-[3-(trifluoromethyl)pyridin-2-yl]-6,7,8,9-tetrahydro-5H-pyrimido[4,5-d]azepin-4-amine]", "IC50": 2.28}, {"smiles": "FC(F)(F)c1ccc(Nc2nc(N3CCCCCC3)nc3c2CCN(c2ncccc2C(F)(F)F)CC3)cc1Cl", "note": "[Example 224, 2-Azepan-1-yl-N-[3-chloro-4-(trifluoromethyl)phenyl]-7-[3-(trifluoromethyl)pyridin-2-yl]-6,7,8,9-tetrahydro-5H-pyrimido[4,5-d]azepin-4-amine]", "IC50": 0.02}, {"smiles": "CC(C)c1nc2c(c(Nc3ccc(S(=O)(=O)N(C)C)cc3)n1)CCN(c1ncccc1C(F)(F)F)CC2", "note": "[Example 154, N,N-Dimethyl-4-({2-(1-methylethyl)-7-[3-(trifluoromethyl)pyridin-2-yl]-6,7,8,9-tetrahydro-5H-pyrimido[4,5-d]azepin-4-yl}amino)benzenesulfonamide]", "IC50": 1.14}, {"smiles": "CC(C)c1nc2c(c(NCc3ccc(Cl)c(C(F)(F)F)c3)n1)CCN(c1ncccc1C(F)(F)F)CC2", "note": "[Example 115, N-{[4-Chloro-3-(trifluoromethyl)phenyl]methyl}-2-(1-methylethyl)-7-[3-(trifluoromethyl)pyridin-2-yl]-6,7,8,9-tetrahydro-5H-pyrimido[4,5-d]azepin-4-amine]", "IC50": 3.79}, {"smiles": "CN1CCCc2ccc(Nc3nc(OC4CCOCC4)nc4c3CCN(c3ncccc3C(F)(F)F)CC4)cc21", "note": "[Example 329, N-(1-Methyl-1,2,3,4-tetrahydroquinolin-7-yl)-2-(tetrahydro-2H-pyran-4-yloxy)-7-[3-(trifluoromethyl)pyridin-2-yl]-6,7,8,9-tetrahydro-5H-pyrimido[4,5-d]azepin-4-amine]", "IC50": 0.12}, {"smiles": "CC(O)(c1ccc(Nc2nc(N3CCCCC3)nc3c2CCN(c2ncccc2C(F)(F)F)CC3)cc1)C(F)(F)F", "note": "(stereo not shown) [Example 180, 1,1,1-Trifluoro-2-[4-({2-piperidin-1-yl-7-[3-(trifluoromethyl)pyridin-2-yl]-6,7,8,9-tetrahydro-5H-pyrimido[4,5-d]azepin-4-yl}amino)phenyl]propan-2-ol]", "IC50": "> 6.67"}]}, {"target": "rat TRPV1 (Rattus norvegicus (Rat), UniProt O35433)", "details": "read-out: Rat IC50; hydrochloride salt", "units": {"IC50": "µM"}, "values": [{"smiles": "CC(C)c1nc2c(c(Nc3ccc(C(F)(F)F)cn3)n1)CCN(c1ncccc1C(F)(F)F)CC2", "note": "[Example 20A, [2-Isopropyl-7-(3-trifluoromethyl-pyridin-2-yl)-6,7,8,9-tetrahydro-5H-pyrimido[4,5-d]azepin-4-yl]-(5-trifluoromethyl-pyridin-2-yl)-amine hydrochloride salt]", "IC50": 0.25}]}]}
